Reference: ChEMBL document CHEMBL1201862, “PubChem BioAssay data set” (2004)
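Test compounds were applied to cells in 96-well plates for 48 hours at 5 doses. GI50: concentration for 50% inhibition of growth.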 The source made the active and inactive calls. Cut-off read from the data, not from the text of the source: active = GI50 up to about 1.1 µM and inactive = higher.

What was measured:
Assay in all cases: NCI tumour cell line growth inhibition, 48 h
786-0 = system: 786-0
ACHN = system: ACHN
K562 = system: K562
NCI-H460 = system: NCI-H460
NCI-H522 = system: NCI-H522
OVCAR-3 = system: OVCAR-3
SK-MEL-28 = system: SK-MEL-28
SN12C = system: SN12C
SNB-75 = system: SNB-75
TK-10 = system: TK-10
A498 = system: A498
A549 = system: A549
Hs-578T = system: Hs-578T
MDA-MB-231 = system: MDA-MB-231
NCI-H23 = system: NCI-H23
PC-3 = system: PC-3
SK-MEL-5 = system: SK-MEL-5
UACC-257 = system: UACC-257

Measured: GI50

O=c1nc(/C=C/c2ccccc2Cl)cc2n1CCN2CCO
inactive: 786-0 > 100 µM | ACHN > 100 µM | K562 90.2 µM | NCI-H460 > 100 µM | NCI-H522 24.3 µM | OVCAR-3 28.6 µM | SK-MEL-28 > 100 µM | SN12C > 100 µM | SNB-75 26.3 µM | TK-10 > 100 µM

CC(C)(OCc1ccccc1)c1ccccc1P(c1ccccc1)c1ccccc1
inactive: 786-0 66.4 µM | A498 89.3 µM | A549 38.7 µM | ACHN 44.8 µM | Hs-578T 47.9 µM | K562 45.3 µM | MDA-MB-231 65 µM | NCI-H23 21.7 µM | NCI-H460 49.7 µM | NCI-H522 42.8 µM | OVCAR-3 46.9 µM | PC-3 33.3 µM | SK-MEL-28 42.2 µM | SK-MEL-5 35 µM | SN12C 46 µM | SNB-75 > 100 µM | TK-10 37.1 µM | UACC-257 22.3 µM

Cc1cc(CC(=O)NCCO)n(CCO)c(=O)c1
inactive: 786-0 > 100 µM | A549 > 100 µM | ACHN > 100 µM | K562 > 100 µM | NCI-H23 > 100 µM | NCI-H460 > 100 µM | NCI-H522 > 100 µM | OVCAR-3 > 100 µM | SK-MEL-28 > 100 µM | SK-MEL-5 > 100 µM | SN12C > 100 µM | SNB-75 84.1 µM | TK-10 > 100 µM | UACC-257 > 100 µM

CN(C)CCCN1c2ccc(O)cc2Sc2ccc(Cl)cc21 [7-HYDROXYCHLORPROMAZINE]
inactive: 786-0 11.1 µM | A498 16.5 µM | A549 13.5 µM | ACHN 14.8 µM | Hs-578T 4.04 µM | K562 3.86 µM | MDA-MB-231 10.9 µM | NCI-H23 17.7 µM | NCI-H460 3.82 µM | NCI-H522 11.4 µM | OVCAR-3 11.8 µM | PC-3 5.33 µM | SK-MEL-28 11.1 µM | SK-MEL-5 13.8 µM | SN12C 10.3 µM | SNB-75 8.63 µM | TK-10 12.3 µM | UACC-257 1.71 µM
